Data published in patent US7078169B2 (priority 1999, dated 2006).

Columns and labels:
[1] = test system: HES1 reporter; details: 384-well array, various concentrations, 30° C., 24 hrs
Description: Cells were grown to mid-log phase at 30° C. in casamino acids medium (0 67% yeast nitrogen base, 2% glucose, 2% casamino acids). Cell density was adjusted prior to incubation in various concentrations of drug Arrays were incubated at 30° C. for 24 hrs prior to imaging.

[2] = test system: HES1 reporter gene; type: cell-based, S. cerevisiae; details: ABY140 (pdr5::KanMX yor1::KanMX) vs ABY11 wild-type
Description: To further test the viability of this indicator gene in a high-throughput screen, the regulation of the HES1 reporter was tested in two different strain backgrounds ABY11 (MATa leu2Δ1 ura3-52) is a wild-type strain.
The ABY140 [HES1] strain was used to screen approximately 16,800 chemicals from a combinatorial chemistry library. […] Twenty-four of these chemical were further tested in a secondary screen for the ability to induce four additional indicator (also referred to as reporter) genes whose expression are also coordinately regulated with genes encoding ergosterol biosynthetic enzymes.

[3] = test system: yjl105w mutant strain; test: Lovastatin drug disk on yeast lawn, yjl105w mutant vs wild-type; type: cell-based, S. cerevisiae; details: 250 μg on sterile disk, 5×10^6 cells, overnight at 30° C.
Description: FIG. 4. Effects of lovastatin on wild-type and YJL105w knockout yeast strains. 10 μl of a 25 mg/ml solution of lovastatin (250 μg) in ethanol was applied to a sterile drug disk on a lawn of yeast (5×10^6 cells, ABY363). The plates were incubated overnight at 30° C.
To test whether YJL105w has a role in isoprenoid metabolism, a yjl105w mutant where the entire ORF was replaced with the kanamycin resistance gene was constructed. Approximately 5×10^6 cells of the yjl105w mutant strain and a wild-type control strain (ABY363, MATα his3Δ1 leu2Δ0 lys2Δ0 ura3Δ0) were plated onto separate non-selective agar plates. The sterol biosynthetic inhibitor lovastatin (250 μg) was applied to a sterile disk on each lawn and the cells were allowed to grow overnight at 30° C.

Structure (SMILES) | induction of the HES1 reporter [1] | sensitivity of HES1 reporter gene induction in ABY140 compared to ABY11 [2] | resistance of yjl105w mutant strain to treatment relative to wild-type control (ABY363) [3]
Clc1ccc(COC(Cn2ccnc2)c2ccc(Cl)cc2Cl)cc1 (stereo not shown) [Econazole] | specifically induced | more sensitive | 
Nc1[nH]c(=O)ncc1F [Flucytosine] |  | not | 
CC[C@H](C)C(=O)O[C@H]1C[C@@H](C)C=C2C=C[C@H](C)[C@H](CC[C@@H]3C[C@@H](O)CC(=O)O3)[C@H]21 [lovastatin] |  |  | significantly more resistant
